Values of other authors in patent US7419996B2, “Parenteral and oral formulations of benzimidazoles” (The University of Houston, priority 2003, dated 2008).
Like-named read-outs stand apart in the source and are kept apart here.

Tested on: rodents

Structure (SMILES): C[S+](C)[O-] [DMSO, dimethylsulfoxide]
- LD50 (intravenously): 3.1 gm/kg
- LD50 (orally): 7.92 gm/kg
